Experimental data as given in patent US4160845A, “Fungicidal N-(haloaliphaticthio)halovinylsulfonamides” (Chevron Research Company, priority 1976, dated 1979).

What was measured:
Format in all cases: cell-based
Details in all cases: paper strips on potato dextrose agar, 25° C., 24 hours
Fusarium moniloforma = experiment: Mycelial inhibition test, Fusarium moniloforma
Aspergillus niger = experiment: Mycelial inhibition test, Aspergillus niger
Rhizoctonia solani = experiment: Mycelial inhibition test, Rhizoctonia solani

| Structure (SMILES) | Mycelia Inhibition, micrograms/cm for 99% control, F (Fusarium moniloforma) | Mycelia Inhibition, micrograms/cm for 99% control, A (Aspergillus niger) | Mycelia Inhibition, micrograms/cm for 99% control, R (Rhizoctonia solani) |
| --- | --- | --- | --- |
| O=S(=O)(C(Cl)=C(Cl)Cl)N(SC(Cl)(Cl)Cl)C1CCCCC1 [Compound 5] | > 1.7 micrograms/cm | > 1.7 micrograms/cm | 1.1 micrograms/cm |
| CN(SC(Cl)(Cl)Cl)S(=O)(=O)C(Cl)=C(Cl)Cl [Compound 1, N-methyl-N-(trichloromethylthio)trichlorovinylsulfonamide] | 1.7 micrograms/cm | 0.42 micrograms/cm | 0.18 micrograms/cm |
| Cc1ccc(NS(=O)(=O)C(Cl)=C(Cl)Cl)cc1 [Compound 18] | > 1.7 micrograms/cm | > 1.7 micrograms/cm | > 1.7 micrograms/cm |
| O=S(=O)(Nc1ccc(Cl)cc1)C(Cl)=C(Cl)Cl [Compound 19, N-(p-chlorophenyl)trichlorovinylsulfonamide] | > 1.7 micrograms/cm | > 1.7 micrograms/cm | > 1.7 micrograms/cm |
| Cc1ccc(N(SC(Cl)(Cl)Cl)S(=O)(=O)C(Cl)=C(Cl)Cl)cc1 [Compound 11] | > 1.7 micrograms/cm | > 1.7 micrograms/cm | > 1.7 micrograms/cm |
| O=S(=O)(Nc1ccc(Cl)c(Cl)c1)C(Cl)=C(Cl)Cl [Compound 21] | > 1.7 micrograms/cm | > 1.7 micrograms/cm | > 1.7 micrograms/cm |
| CC(C)NS(=O)(=O)C(Cl)=C(Cl)Cl [Compound 14] | > 1.7 micrograms/cm | > 1.7 micrograms/cm | > 1.7 micrograms/cm |
| Cc1cc(Sc2ccccc2)ccc1NS(=O)(=O)C(Cl)=C(Cl)Cl [Compound 20] | > 1.7 micrograms/cm | > 1.7 micrograms/cm | > 1.7 micrograms/cm |
| CC(C)N(SC(Cl)(Cl)Cl)S(=O)(=O)C(Cl)=C(Cl)Cl [Compound 4] | > 1.7 micrograms/cm | 0.68 micrograms/cm | 0.19 micrograms/cm |
| O=S(=O)(C(Cl)=C(Cl)Cl)N(SC(Cl)(Cl)Cl)c1ccccc1 [Compound 7, N-phenyl-N-(trichloromethylthio)trichlorovinylsulfonamide] | > 1.7 micrograms/cm | > 1.5 micrograms/cm | > 1.7 micrograms/cm |
| CNS(=O)(=O)C(Cl)=C(Cl)Cl [Compound 13] | > 1.7 micrograms/cm | > 1.7 micrograms/cm | > 1.7 micrograms/cm |
| Cc1cccc(C)c1NS(=O)(=O)C(Cl)=C(Cl)Cl [Compound 17] | > 1.7 micrograms/cm | > 1.7 micrograms/cm | > 1.7 micrograms/cm |
| Cc1cccc(C)c1N(SC(Cl)(Cl)Cl)S(=O)(=O)C(Cl)=C(Cl)Cl [Compound 9] | > 1.7 micrograms/cm | > 1.7 micrograms/cm | 0.33 micrograms/cm |
| O=S(=O)(Nc1ccccc1)C(Cl)=C(Cl)Cl [Compound 16] | > 1.7 micrograms/cm | > 1.7 micrograms/cm | > 1.7 micrograms/cm |
| O=S(=O)(NC1CCCCC1)C(Cl)=C(Cl)Cl [Compound 15] | > 1.7 micrograms/cm | > 1.7 micrograms/cm | > 1.7 micrograms/cm |
